# Test results: patent publication US5726156A, “Cytokine regulatory agents and methods of use in pathologies and conditions associated with altered cytokine levels” (Trega Biosciences, Inc., priority 1995, dated 1998)
# Columns and labels:
# IL-10 = test: Increasing levels of IL-10 in human plasma; format: in vivo; settings: for increase of plasma IL-10: healthy male volunteers
# Experimental: EX-2 was administered by intravenous infusion to eight healthy male volunteers in doses of either 200 or 500 ug/kg. Plasma IL-10 levels increased in two of four volunteers after administration at 200 ug/kg EX-2 (FIG. 3a) and in four of four volunteers after administration of 500 ug/kg EX-2 (FIG. 3b).
# IL-1-induced fever = test: IL-1β-induced temperature increase (fever); format: in vivo, rats; settings: 500 μg/kg IP
# Experimental: Male Wistar rats (45-75 days old) were placed in a temperature controlled room held at 26° C., which is thermoneutral for the normal body temperature of rats, and were maintained in the room with free access to food and water for 24 hr prior to testing. On the morning of the study, rats were marked for identification and weighed. The temperature of each rat was determined by placing the animal in a regulatory cage designed to minimize stress and inserting a temperature probe (YSI probe #402) 3-5 cm into the animal's rectum. The temperature was recorded 15 sec after the reading stabilized. Measurements were repeated 1 hr later to establish a baseline temperature for each rat.
# After the baseline temperatures were established, rats were injected IP with saline, IL-1β or LPS endotoxin. Rats then were injected IP with either saline (control) or various concentrations of EX-2, EX-3, or EX-4 (treated). The temperature of the rats was measured every hr for 6 hr and the inhibition by EX-2, EX-3, or EX-4 of the rise in temperature due to IL-1β or LPS was determined.
# In addition, treatment with 50 or 150 μg/kg EX-2 inhibited LPS-induced fever by 45% or 52%, respectively, when measured 6 hr following LPS injection. Furthermore, treatment with 150 μg/kg EX-3 or EX-4 inhibited LPS-induced fever by 57% and 52%, respectively (Table II).
# [1] = system: IL-1β-induced hyperalgesia; test: IL-1β-induced hyperalgesia, paw pressure test; format: in vivo, rats; set-up: dose or concentration left out as unconfirmed; settings: IP 20 min before IL-1β intraplantar; 2 hr after IL-1
# Experimental: These experiments were performed using a modification of the methods described by Poole etal., Br. J. Pharmacol. 106:489-492 (1992); Foilenfant et al., Br. J. Pharmacol. 98:41-43 (1989); and Randall and Sellito, Arch. Internatl. Pharmacodyn. 111:409-419 (1957), each of which is incorporated herein by reference. Adult male Sprague-Dawley rats (175-275 g) were tested for hyperalgesia by a paw pressure technique using variable pressure instrumentation (IITC Life Sciences; Woodland Hills, Calif.). Rats were acclimated to the housing environment and were handled for three days prior to beginning a training session. On the day before the hyperalgesia experiments was to begin, each rat was placed into a sock and two variable paw pressure tests were performed 15 min apart. […] Approximately 5-10% of the rats were non-responders and were eliminated from further experiments.
# Animals that responded to the paw pressure were pretreated by IP injection of various concentrations of EX-2 in a volume of 1 ml/kg (treated) or saline, alone (control). After 20 min, 100 μl of IL-1β (1U/100 μl) was administered to rats via intra plantar injection. Two hr after IL-1 administration, rats were subjected to two additional paw pressure tests and the increase in mm Hg of pressure that could be applied to the EX-2-treated rats as compared to the control rats was determined.
# [2] = system: kidney (cyclosporine-induced nephrotoxicity); test: Cyclosporine-induced nephrotoxicity; format: in vivo, rats
# Experimental: In the first study, male Sprague-Dawley rats (n=43) with a weight range of 240-290 g at the initiation of the cyclosporine A (CsA) treatment were divided into 4 weight matched groups. The groups were as follows: (1) Control: no CsA, no EX-2, treatment only with CsA vehicle (PBS) PO and EX-2 vehicle (also PBS) IP; (2) CsA: treatment with CsA (50 mg/kg in PBS administered PO daily at 0830 hr for 9 days) and IP injections of PBS (Ex-2 vehicle); (3) CsA and 50 μg: CsA treatment identical to group 2 with the addition of EX-2 (50 μg/kg IP administered daily at 0800 and 1700 hr in EX-2 vehicle); and (4) CsA and 500 μg: CsA treatment identical to groups 2 and 3, and EX-2 treatment protocol similar to group 3 except that the dose of EX-2 was 500 μg/kg BW. […] Renal blood flow was determined by the inulin extraction technique. […]
# In the second study, male Sprague-Dawley rats (n=3l) with a weight range of 240-290 g at the time of initiation of the cyclosporine treatment were divided into 4 weight-matched groups. […] Renal hemodynamics were determined and extracellular fluid volumes were also assessed.
# In the second study, where extracellular fluid volumes (ECF) were measured, there were no differences in ECF among control and treatment groups (27.6±1.9 in control, 27.5±1.7 in CsA and vehicle, 26.2±0.9 in CsA +200 μg/kg EX-2, and 25.7±1.4% in CsA +500 μg/kg EX-2). […]
substance,measurement,setting,value
Ac-Nle-Gln-His-(D)Phe-Arg-(D)Trp-Gly-NH2 [EX-2],volunteers in whom plasma IL-10 levels increased,IL-10; 200 ug/kg intravenous infusion,two of four
same,increase of plasma IL-10,IL-10; 200 ug/kg intravenous infusion,85%
same,volunteers in whom plasma IL-10 levels increased,IL-10; 500 ug/kg intravenous infusion,four of four
same,increase of plasma IL-10,IL-10; 500 ug/kg intravenous infusion,230%
same,Reduction in IL-1-induced Fever,IL-1-induced fever,52%
same,Reduction in IL-1-induced Hyperalgesia (increase in tolerated paw pressure),[1],125%
same,renal blood flow,"[2]; CsA-treated rats, EX-2 IP twice daily",improved blood flow to values not different from control
same,GFR,"[2]; compared to CsA and vehicle controls, in both studies",significantly increased GFR
